Measurements from article PMC4687129, “Molecular characterization of a cathepsin F-like protease in Trichinella spiralis” (Parasites & Vectors, 2015).

Tested on: T1, TsCF1 (cathepsin F-like protease)
T1 construct: gene Tsp_02382
Experiment: fluorescence endpoint assay, Z-Phe-Arg-AMC hydrolysis at pH […] min preincubation with inhibitor
Assay type: biochemical, Trichinella spiralis

CC(C)C[C@H](NC(=O)[C@H]1O[C@@H]1C(=O)O)C(=O)NCCCCN=C(N)N [E-64]
IC50: 136 ± 16.9 nM
